This is an account of results in patent publication US20250263370A1 (Tay Therapeutics Limited, priority 2022, published 2025).

One may read the IC50 as the concentration needed to halve the response being measured.

SMILES strings stand for the structures.

For one assay, the target named is BRD4 BD1 (Homo sapiens (Human), UniProt O60885). The assay can be described thus: NanoBRET bromodomain assay, NanoLuc-BRD4-BD1 fusion in HEK293 cells. The settings on record: top concentration 10 μM. It is filed as cell-based.
A further assay concerns the target BRD4 BD2 (Homo sapiens (Human), UniProt O60885). The assay can be described thus: NanoBRET bromodomain assay, NanoLuc-BRD4-BD2 fusion in HEK293 cells.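 For all read-outs here: tracer displacement BRET read in transfected cells after 2 h compound exposure at 37 °C, signal in milliBRET units corrected against no-tracer background wells.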 The settings on record: for IC50: BRD4 BD2 (IC50), NanoBRET, HEK293 cells, top concentration 10 μM; for Fold selectivity: IC50 for BRD4 BD1 divided by IC50 for BRD4 BD2, qualitative if an IC50 is at the upper limit. On the technique in general: In BRET a luciferase serves as donor, and the signal depends on an acceptor being close.

Method for BRD4 BD2: HEK293 cells were transfected using NanoLuc-BRD4-BD1 or NanoLuc-BRD4-BD2 fusion vectors and incubated at 37° C. in an atmosphere of 5% CO2 for 20-24 hours. The transfected cells were then dispensed into 96-well plates using 90 μl cell suspension per well containing 2×10^5 cells/mL in Opti-MEM and 1× final concentration of tracer. 90 μL per well of cell suspension without tracer was also dispensed into at least 3 wells as “No tracer control samples” for background correction. Serially diluted test compounds were prepared at 1000× concentration in DMSO and further diluted to 10× concentration in Opti-MEM. […] Plates were then incubated at 37° C. +5% 002 incubator for 2 hours. […] Donor emission (450 nm) and acceptor emission (610 nm) were measured using PHERAstar (BMG LabTech). For data analysis, the raw BRET ratio was generated and converted to milliBRET units with background correction using the formula: [(Acceptorsample/Donorsample−(Acceptorno tracer control/Donorno tracer control)]×1000. The mBU data was plotted as a function of compound concentration and IC50s for BRET assay were determined by nonlinear regression analysis of concentration response curves using the Collaborative Drug Discovery Vault software. The fold-selectivity was calculated by dividing the IC50 for BRD4 BD1 by the IC50 for BRD4 BD2.

For the compound `CCNC(=O)c1cc(OC(C)c2ccc(C(F)(F)F)cc2)c(C(=O)NC)[nH]1` (racemic) [Example 1, N^5-ethyl-N^2-methyl-3-(1-(4-(trifluoromethyl)phenyl)ethoxy)-1H-pyrrole-2,5-dicarboxamide], the half-maximal inhibitory concentration (IC50) at BRD4 BD1 is at least 10 µM. Also, at BRD4 BD2, the IC50 lay in the range of 0.2 to 1 µM; the Fold selectivity entry was “X (Fold >2 and ≤50)”.
For `CCNC(=O)c1cc(OC(C)c2ccccc2C(F)(F)F)c(C(=O)NC)[nH]1` (racemic) [Example 2, N^5-ethyl-N^2-methyl-3-(1-(2-(trifluoromethyl)phenyl)ethoxy)-1H-pyrrole-2,5-dicarboxamide], the IC50 against BRD4 BD1 was at least 10 µM. Further, on BRD4 BD2, the IC50 was in the range of 0.05 to 0.2 µM; the Fold selectivity result was “XX (Fold >50 and ≤200)”.
For the compound `CCNC(=O)c1cc(OC(C)c2cccc(Cl)c2)c(C(=O)NC)[nH]1` (racemic) [Example 3, 3-(1-(3-chlorophenyl)ethoxy)-N^5-ethyl-N^2-methyl-1H-pyrrole-2,5-dicarboxamide], the IC50 at BRD4 BD1 is at least 10 µM. In addition, at BRD4 BD2, the half-maximal inhibitory concentration (IC50) fell in the range of 0.05 to 0.2 µM; the Fold selectivity result is “XX (Fold >50 and ≤200)”.
With `CCNC(=O)c1cc(OC(C)c2ccccc2C)c(C(=O)NC)[nH]1` (racemic) [Example 5, N^5-ethyl-N^2-methyl-3-(1-(o-tolyl)ethoxy)-1H-pyrrole-2,5-dicarboxamide], the IC50 against BRD4 BD1 is at least 10 µM. Besides, at BRD4 BD2, the IC50 lay within 0.05 to 0.2 µM; the Fold selectivity entry was “XX (Fold >50 and ≤200)”.
As for `CCNC(=O)c1cc(OC(C)c2ccccc2Cl)c(C(=O)NC)[nH]1` (racemic) [Example 6, 3-(1-(2-chlorophenyl)ethoxy)-N^5-ethyl-N^2-methyl-1H-pyrrole-2,5-dicarboxamide], the results for the half-inhibitory concentration (IC50) against BRD4 BD1 and at BRD4 BD2 were at least 10 µM and 0.2 to 1 µM, respectively. For the same compound, the Fold selectivity entry on BRD4 BD2 is “X (Fold >2 and ≤50)”.
`CCNC(=O)c1cc(OC(C)c2cccc(OC)c2)c(C(=O)NC)[nH]1` (racemic) [Example 7, N^5-ethyl-3-(1-(3-methoxyphenyl)ethoxy)-N^2-methyl-1H-pyrrole-2,5-dicarboxamide]: on BRD4 BD1, the 50% inhibitory concentration (IC50) is at least 10 µM. Further, at BRD4 BD2, the IC50 lay within 0.2 to 1 µM; the Fold selectivity entry is “X (Fold >2 and ≤50)”.
`CCNC(=O)c1cc(OC(CCOC)c2ccccc2)c(C(=O)NC)[nH]1` (racemic) [Example 8, N^5-ethyl-3-(3-methoxy-1-phenylpropoxy)-N^2-methyl-1H-pyrrole-2,5-dicarboxamide] had a half-inhibitory concentration (IC50) against BRD4 BD1 of at least 10 µM. For the same compound, at BRD4 BD2, the half-inhibitory concentration (IC50) is above 10 µM; the Fold selectivity entry was “— (Fold ≥0 and ≤2)”.
As to `CCNC(=O)c1cc(OC(C)c2ccc(C#N)cc2)c(C(=O)NC)[nH]1` (racemic) [Example 9, 3-(1-(4-cyanophenyl)ethoxy)-N^5-ethyl-N^2-methyl-1H-pyrrole-2,5-dicarboxamide], the figures for the IC50 at BRD4 BD1 and against BRD4 BD2 were at least 10 µM and above 10 µM, respectively. The Fold selectivity result at BRD4 BD2 was “— (Fold ≥0 and ≤2)”.
On to `CNC(=O)c1[nH]c(C(=O)NC2CCC2)cc1OC(C)c1ccc(Cl)cc1` (single isomer, unassigned) [Example 28, 3-(1-(4-chlorophenyl)ethoxy)-N^5-cyclobutyl-N^2-methyl-1H-pyrrole-2,5-dicarboxamide], for which the Fold selectivity result at BRD4 BD2 was “— (Fold ≥0 and ≤2)”.
Same read-out and setting: the result for `CCNC(=O)c1cc(OC(C)c2c(C)cccc2C)c(C(=O)NC)[nH]1` (single isomer, unassigned) [Example 64, 3-(1-(2,6-dimethylphenyl)ethoxy)-N^5-ethyl-N^2-methyl-1H-pyrrole-2,5-dicarboxamide] reads “— (Fold ≥0 and ≤2)”; that for `CNC(=O)c1[nH]c(C(=O)N[C@H]2CC[C@H](O)CC2)cc1O[C@@H](C)c1ccnnc1` (single isomer, unassigned) [Example 92, N^5-(4-hydroxycyclohexyl)-N^2-methyl-3-(1-(pyridazin-4-yl)ethoxy)-1H-pyrrole-2,5-dicarboxamide], “— (Fold ≥0 and ≤2)”.
